Measurements: the NIST ThermoML archive (doi:10.1016/j.jct.2009.05.018)
Numbers after ± are expanded uncertainties.

Assay: molar enthalpy of vaporization or sublimation
Details: 298.15 K, Calvet microcalorimetry

| molar enthalpy (Liquid) [kcal/mol] | molar enthalpy (Crystal) [kcal/mol] | Compound |
| --- | --- | --- |
| 14.9 ± 0.765 |  | Cn1ccc2ccccc21 [1-methylindole] |
|  | 21.2 ± 1.15 | Cc1cc2ccccc2[nH]1 [2-methylindole] |
|  | 21.6 ± 0.908 | Cc1c[nH]c2ccccc12 [3-methyl-1H-indole] |
